In assay [1] the target is T1, USP25 (Homo sapiens, UniProt Q9UHP3).
T1 construct: purchased R&D Systems
T1 sequence (Q9UHP3 1-1055): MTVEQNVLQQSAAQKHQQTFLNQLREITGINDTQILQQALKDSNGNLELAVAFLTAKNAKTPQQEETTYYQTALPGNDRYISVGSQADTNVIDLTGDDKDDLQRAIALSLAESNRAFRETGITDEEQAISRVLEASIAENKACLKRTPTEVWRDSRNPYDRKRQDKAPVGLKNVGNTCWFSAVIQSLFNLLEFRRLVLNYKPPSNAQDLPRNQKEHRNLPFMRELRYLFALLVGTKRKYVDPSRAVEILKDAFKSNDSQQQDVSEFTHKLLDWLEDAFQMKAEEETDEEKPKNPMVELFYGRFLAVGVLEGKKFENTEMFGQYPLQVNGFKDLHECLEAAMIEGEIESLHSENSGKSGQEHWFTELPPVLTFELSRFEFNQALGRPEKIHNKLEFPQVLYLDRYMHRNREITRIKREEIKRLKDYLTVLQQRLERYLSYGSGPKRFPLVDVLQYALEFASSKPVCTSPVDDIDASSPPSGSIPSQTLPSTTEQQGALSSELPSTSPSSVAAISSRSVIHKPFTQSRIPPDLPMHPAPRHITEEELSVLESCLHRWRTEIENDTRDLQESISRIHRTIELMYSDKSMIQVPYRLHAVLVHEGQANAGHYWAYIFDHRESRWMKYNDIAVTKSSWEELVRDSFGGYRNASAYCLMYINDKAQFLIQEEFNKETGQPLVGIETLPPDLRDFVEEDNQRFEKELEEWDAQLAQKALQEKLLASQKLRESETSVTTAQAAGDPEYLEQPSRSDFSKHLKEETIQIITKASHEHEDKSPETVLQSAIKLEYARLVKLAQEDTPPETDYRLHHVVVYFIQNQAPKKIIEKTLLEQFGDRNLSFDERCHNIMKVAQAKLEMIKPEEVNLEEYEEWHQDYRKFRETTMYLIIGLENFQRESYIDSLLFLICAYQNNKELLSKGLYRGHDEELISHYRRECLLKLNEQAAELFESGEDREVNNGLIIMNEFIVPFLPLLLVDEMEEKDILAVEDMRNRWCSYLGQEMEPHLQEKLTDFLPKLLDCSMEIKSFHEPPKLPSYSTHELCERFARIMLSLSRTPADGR
Kind of assay: USP25 activity by the Ub-Rh110 method. It is filed as biochemical. The following applies: purified USP25 15 nM, Ub-Rh110 125 nM; read-out: Inhibitory activity (IC50) USP25. As to the method: USP25 activity was determined by the Ub-Rh110 method.
Purified USP25 was purchased from R&D Systems. The experimental procedures were the same as those in Example 2. The final concentration of USP25 was 15 nM, the final concentration of the substrate Ub-Rh110 was 125 nM, and the final volume of the whole reaction system was 20 μL.
(§1) With reference to Example 2 and Example 3, USP28 and USP25 inhibitor activity tests were performed on representative example compounds of the present disclosure and the following comparative compound structures.

Assay [2] concerns the target T2, USP28 (Homo sapiens, UniProt Q96RU2).
T2 construct: purchased R&D Systems China Co., Ltd. (R&D Systems)
T2 sequence (Q96RU2 1-1077): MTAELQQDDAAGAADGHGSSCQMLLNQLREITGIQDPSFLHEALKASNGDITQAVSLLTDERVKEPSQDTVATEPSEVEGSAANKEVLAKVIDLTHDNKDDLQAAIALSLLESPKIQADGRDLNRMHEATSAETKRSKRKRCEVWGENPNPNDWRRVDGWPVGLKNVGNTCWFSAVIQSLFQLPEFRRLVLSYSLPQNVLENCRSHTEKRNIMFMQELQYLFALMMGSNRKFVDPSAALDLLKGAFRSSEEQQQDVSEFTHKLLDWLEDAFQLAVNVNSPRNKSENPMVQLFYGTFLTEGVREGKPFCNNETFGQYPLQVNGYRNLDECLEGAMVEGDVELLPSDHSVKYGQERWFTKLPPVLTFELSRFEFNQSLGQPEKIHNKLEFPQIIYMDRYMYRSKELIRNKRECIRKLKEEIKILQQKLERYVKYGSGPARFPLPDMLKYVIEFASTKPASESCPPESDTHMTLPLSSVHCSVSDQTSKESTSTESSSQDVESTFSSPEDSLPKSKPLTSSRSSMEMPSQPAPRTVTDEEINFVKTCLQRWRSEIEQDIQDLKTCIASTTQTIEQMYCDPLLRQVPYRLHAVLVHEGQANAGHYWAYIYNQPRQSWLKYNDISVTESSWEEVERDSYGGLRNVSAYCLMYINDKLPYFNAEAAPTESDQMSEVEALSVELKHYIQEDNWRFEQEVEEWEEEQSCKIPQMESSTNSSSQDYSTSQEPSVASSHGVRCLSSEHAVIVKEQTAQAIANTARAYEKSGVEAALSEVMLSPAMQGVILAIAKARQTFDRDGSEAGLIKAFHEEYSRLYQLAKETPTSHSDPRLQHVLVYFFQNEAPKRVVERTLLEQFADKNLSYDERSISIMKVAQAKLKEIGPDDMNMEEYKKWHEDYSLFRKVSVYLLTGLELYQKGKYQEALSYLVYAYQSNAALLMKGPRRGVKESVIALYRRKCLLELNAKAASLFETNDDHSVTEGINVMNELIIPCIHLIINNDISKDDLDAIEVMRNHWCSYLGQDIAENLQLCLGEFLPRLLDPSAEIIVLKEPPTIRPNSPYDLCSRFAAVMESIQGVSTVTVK
The experiment in a line: USP28 activity by the ubiquitin-rhodamine 110 (Ub-Rh110) method. It is filed as biochemical. Particulars: purified USP28 4 nM, Ub-Rh110 125 nM, 30 min preincubation; read-out: Inhibitory activity (IC50) USP28. As to the method: USP28 activity was determined by the ubiquitin-rhodamine 110 (Ub-Rh110) method.
Purified USP28 and a substrate Ub-Rh110 used for determining deubiquitinase activity were purchased from R&D Systems China Co., Ltd. (R&D Systems). First, test compounds were each dissolved in DMSO to prepare a 10 mM stock solution, and then the stock solution was diluted to the desired concentration (with a DMSO content of 0.5%) with a buffer solution [containing 20 mM Tris-HCl (pH 8.0), 2 mM CaCl2), 3 mM BME, 0.01% Prionex, and 0.01% Triton X-100]. The prepared test compound solutions at different concentrations were mixed uniformly with USP28 (final concentration: 4 nM) in a 96-well plate, and the mixture was incubated at r. t. for 30 min before the addition of Ub-Rh110 to 125 nM. The final volume of the whole reaction system was 20 μL. The released fluorescence (excitation wavelength: 485 nm, emission wavelength: 535 nm) was detected immediately on a microplate reader after the addition of the substrate. A blank control group (DMSO instead of test compound) and a substrate group (no USP28 added) were set simultaneously. The inhibitory rates of the test compounds for USP28 were calculated according to the following formula:
Inhibition %=(1−[(fluorescence valuetest compound−fluorescence valuesubstrate)/(fluorescence valuecontrol−fluorescence valuesubstrate])×100%
According to the inhibitory rates of the test compounds for USP28 under different concentrations, IC50 values were calculated.
as §1

In general, IC50 refers to the concentration needed to halve the response being measured. Consider `CCn1ccc2c(OC)c(C(=O)NCCc3ccc(N4CC5CCC(C4)N5)cc3)cnc21` [Compound I-32], for which the IC50 in assay [1] was in the range of 1000 to 10000 nM; in assay [2] it was 50 to 500 nM.
The corresponding values for `CCn1ccc2c(NC)c(C(=O)NCCc3ccc(C4CCNCC4)cc3)cnc21` [Compound I-20] are 50 to 500 nM and less than 50 nM.
`CCn1ccc2c(NC)c(C(=O)NCCc3ccc(N4CC5CCC(C4)N5)cc3)cnc21` [Compound I-02, N-4-(3,8-diazabicyclo[3.2.1]octan-3-yl)phenethyl-1-ethyl-4-methylamino-1H-pyrrolo[2,3-b]pyridine-5-carboxamide]: the IC50 in assay [1] and in assay [2] was less than 50 nM in each case.
For the molecule `CCn1ccc2c(NC)c(C(=O)NC[C@H](C)c3ccc(N4CC5CCC(C4)N5)cc3)cnc21` [Compound I-21], the 50% inhibitory concentration (IC50) fell in the range of 500 to 1000 nM in assay [1] and 50 to 500 nM in assay [2].
The corresponding values for `CNc1c(C(=O)NCCc2ccc(N3CCNCC3)cc2)cnc2c1ccn2CC(F)(F)F` [Compound I-16] are less than 50 nM and less than 50 nM.
With `CCn1ccc2c(NC)c(C(=O)NCCc3ccc(OC)c(OC)c3)cnc21` [Compound I-09], the IC50 in assay [1] and in assay [2] was 50 to 500 nM each time.
In the case of `CCn1ccc2c(NC)c(C(=O)NCCc3ccc(Br)cc3)cnc21` [Compound I-10], the 50% inhibitory concentration (IC50) in assay [1] was greater than 10000 nM.
`CCn1cc(Cl)c2c(NC)c(C(=O)NCCc3ccc(N4CC5CCC(C4)N5)cc3)cnc21` [Compound I-30]: the IC50 in assay [1] was 50 to 500 nM; in assay [2], less than 50 nM.
The corresponding values for `CCn1ccc2c(NC)c(C(=O)NCCc3ccc(N4CC5CCC(C4)N5)cc3)nnc21` [Compound I-27] are less than 50 nM and less than 50 nM.
The corresponding values for `CCCCn1ccc2c(NC)c(C(=O)NCCc3ccc(N4CC5CCC(C4)N5)cc3)cnc21` [Compound I-14] are less than 50 nM and less than 50 nM.
Consider `CCNc1c(C(=O)NCCc2ccc(N3CC4CCC(C3)N4)cc2)cnc2c1ccn2CC` [Compound I-03], for which the IC50 in assay [1] and in assay [2] was 500 to 1000 nM each time.
Regarding `CNc1c(C(=O)NCCc2ccc(N3CC4CCC(C3)N4)cc2)cnc2c1ccn2CC(F)(F)F` [Compound I-15], the IC50 in assay [1] and in assay [2] was less than 50 nM each time.
On to `CCn1ccc2c(NC)c(C(=O)NCCc3ccc(N4C5CCC4CNC5)cc3)cnc21` [Compound I-19], for which the IC50 is 50 to 500 nM in assay [1] and less than 50 nM in assay [2].
As for `CCn1ccc2c(NC)c(C(=O)NCCc3ccc(N4CC5CCC(C4)N5)cc3F)cnc21` [Compound I-05], the results for the 50% inhibitory concentration (IC50) in assay [1] and in assay [2] were 50 to 500 nM and less than 50 nM, respectively.
The corresponding values for `CCn1ccc2c(NC)c(C(=O)N[C@H]3CCc4cc(N5CC6CCC(C5)N6)ccc4C3)cnc21` [Compound I-25] are 50 to 500 nM and less than 50 nM.
With `CCn1ccc2c(NC)c(C(=O)NCCc3ccc(N4CCNCC4)cc3)cnc21` [Compound I-07], the concentration for half-maximal inhibition (IC50) in assay [1] and in assay [2] was less than 50 nM throughout.
On to `CCn1ccc2c(NC)c(C(=O)NCCc3ccc(N4CCNCC4)cc3)nnc21` [Compound I-28], for which the half-inhibitory concentration (IC50) in assay [1] and in assay [2] was less than 50 nM throughout.
Turning to `CCn1ccc2c(Cl)c(C(=O)NCCc3ccc(N4CC5CCC(C4)N5)cc3)cnc21` [Compound I-01, N-4-(3,8-diazabicyclo[3.2.1]octan-3-yl)phenethyl-4-chloro-1-ethyl-1H-pyrrolo[2,3-b]pyridine-5-carboxamide], the IC50 in assay [1] and in assay [2] was 1000 to 10000 nM each time.
As for `CCn1ccc2c(NC)c(C(=O)NCCc3ccc(N4CC5CCC(C4)N5)cc3F)nnc21` [Compound I-29], the IC50 in assay [1] is 50 to 500 nM; in assay [2] it was less than 50 nM.
Consider `CCn1ccc2c(NC)c(C(=O)NCC(C)(C)c3ccc(N4CC5CCC(C4)N5)cc3F)cnc21` [Compound I-06], for which the values for the half-inhibitory concentration (IC50) in assay [1] and in assay [2] were 500 to 1000 nM and 50 to 500 nM, respectively.
The corresponding values for `CCn1ccc2c(NC)c(C(=O)NC[C@@H](C)c3ccc(N4CC5CCC(C4)N5)cc3)cnc21` [Compound I-22] are 500 to 1000 nM and 50 to 500 nM.
With `CCn1ccc2c(NC)c(C(=O)NCCc3ccc(C4C5CCC4CNC5)cc3)cnc21` (centres unmarked) [Compound I-18], the IC50 in assay [1] was in the range of 50 to 500 nM.
Consider `CCCNc1c(C(=O)NCCc2ccc(N3CC4CCC(C3)N4)cc2)cnc2c1ccn2CC` [Compound I-04], for which the IC50 was greater than 10000 nM in assay [1] and 1000 to 10000 nM in assay [2].
With `CCn1ccc2c(OC)c(C(=O)NCCc3ccc(N4CCNCC4)cc3)cnc21` [Compound I-33], the IC50 in assay [1] was in the range of 1000 to 10000 nM; in assay [2] it was 50 to 500 nM.
The corresponding values for `CCn1ccc2c(NC)c(C(=O)N[C@@H]3COc4cc(N5CC6CCC(C5)N6)ccc4C3)cnc21` [Compound I-24] are 500 to 1000 nM and 50 to 500 nM.
The corresponding values for `CNc1c(C(=O)NCCc2ccc(N3CC4CCC(C3)N4)cc2)cnc2c1ccn2C` [Compound I-12] are 50 to 500 nM and less than 50 nM.
Regarding `CCn1ccc2c(NC)c(C(=O)N[C@H]3COc4cc(N5CC6CCC(C5)N6)ccc4C3)cnc21` [Compound I-23], the IC50 in assay [1] and in assay [2] was less than 50 nM each time.
For `CCCn1ccc2c(NC)c(C(=O)NCCc3ccc(N4CC5CCC(C4)N5)cc3)cnc21` [Compound I-13], the concentration for half-maximal inhibition (IC50) in assay [1] and in assay [2] was less than 50 nM in each case.
With `COc1c(C(=O)NCCc2ccc(N3CC4CCC(C3)N4)cc2)cnc2c1ccn2C` [Compound I-31], the IC50 in assay [1] is greater than 10000 nM; in assay [2], 1000 to 10000 nM.

For the origin of these results see US20250289829A1, “DEUBIQUITINASE INHIBITOR AND USE THEREOF” (CHASER THERAPEUTICS, INC., priority 2022, published 2025).
